Test results as given in PubChem BioAssay (NCI).
Several values for one entry are separate records, joined by “and”; a condition that tells them apart may be missing. Equal entries are not always repeated.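 Five compound concentrations were applied to cells in 96-well plates for 48 hours; endpoints were derived by simple linear interpolation of the resulting dose-response curve. At the GI50, growth is halved. TGI: concentration producing complete growth inhibition.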

Assays:
Test in all cases: growth of human tumour cells (NCI), 48 h
HS 578T breast = tested on: HS 578T breast
RXF 393 renal = tested on: RXF 393 renal
U251 CNS = tested on: U251 CNS
UACC-62 melanoma = tested on: UACC-62 melanoma
EKVX NSCLC = tested on: EKVX NSCLC
T-47D breast = tested on: T-47D breast
OVCAR-4 ovarian = tested on: OVCAR-4 ovarian
HCT-15 colon = tested on: HCT-15 colon
CAKI-1 renal = tested on: CAKI-1 renal
SN12C renal = tested on: SN12C renal

Row | Compound | GI50 (HS 578T breast) | TGI (HS 578T breast) | GI50 (RXF 393 renal) | TGI (RXF 393 renal) | GI50 (U251 CNS) | TGI (U251 CNS) | GI50 (UACC-62 melanoma) | TGI (UACC-62 melanoma) | GI50 (EKVX NSCLC) | TGI (EKVX NSCLC) | GI50 (T-47D breast) | TGI (T-47D breast) | GI50 (OVCAR-4 ovarian) | TGI (OVCAR-4 ovarian) | GI50 (HCT-15 colon) | TGI (HCT-15 colon) | GI50 (CAKI-1 renal) | TGI (CAKI-1 renal) | GI50 (SN12C renal) | TGI (SN12C renal)
1 | CCOC(=O)c1c(-c2ccc(OC)cc2)c(C#N)c2c(C#N)c(N)nn2c1N | 2.96 µM | 27.6 µM | 2.25 µM | 11.5 µM | 4.19 µM | 23.7 µM | 2.47 µM | 15.2 µM | 4.8 µM | > 100 µM | 2.93 µM | 33.1 µM | 6.11 µM | 96.7 µM | 2.95 µM | > 100 µM | 2.95 µM | > 100 µM | 4 µM | 49 µM
2 | C=CCc1ccc(O)c(-c2ccc(O)c(CC=C)c2)c1 | 14.2 µM | 39.7 µM | 18.9 µM | 47.3 µM | 14.3 µM | 31.8 µM | 16 µM | 30 µM | 7.11 µM | 23.3 µM | 20.3 µM | > 53.9 µM | 15.5 µM | 35.8 µM | 16.5 µM | 33.7 µM | 14.1 µM | 29.4 µM | 14.4 µM | 29.6 µM
3 | COc1ccccc1Nc1ncc(-c2ccccc2)o1 | > 5.12 µM | > 25 µM | > 25 µM | > 25 µM | > 25 µM | > 25 µM | > 25 µM | > 25 µM | > 25 µM | > 25 µM | > 25 µM | > 25 µM | > 25 µM | > 25 µM | > 25 µM | > 25 µM | > 24 µM | > 25 µM | > 25 µM | > 25 µM
4 | CSc1nc(NC2OC(COC(C)=O)C(OC(C)=O)C(OC(C)=O)C2OC(C)=O)c(N=CC=Nc2c(NC3OC(COC(C)=O)C(OC(C)=O)C(OC(C)=O)C3OC(C)=O)nc(SC)n(C)c2=O)c(=O)n1C (stereo not given) | 13.2 µM | 50 µM and 75.7 µM | 12.4 µM | 46.2 µM and 61.5 µM | 20.6 µM | 50 µM and > 100 µM | > 50 µM | > 100 µM | > 50 µM | > 100 µM | 43.2 µM | 50 µM and > 100 µM | > 50 µM | > 100 µM | > 50 µM | > 100 µM | > 50 µM | > 100 µM | > 50 µM | > 100 µM
5 | Cc1ccc(Nc2oc(-c3ccccc3)nc2[P+](c2ccccc2)(c2ccccc2)c2ccccc2)cc1 | 1.41 µM | 3.99 µM | 0.864 µM | 2.34 µM | 0.538 µM | 1.71 µM | 0.687 µM | 2.01 µM | 0.616 µM | 2.38 µM | 0.43 µM | 2.33 µM | 0.357 µM | 2.07 µM | 0.64 µM | 2.16 µM | 1.22 µM | 2.72 µM | 0.888 µM | 2.51 µM
6 | C=COC(=O)N[C@H]1CCc2cc(OC)c(OC)c(OC)c2-c2ccc(SC)c(=O)cc21 |  | > 4.64 µM |  | 3.14 µM |  | 3.02 µM |  | > 75 µM |  | > 100 µM |  | > 100 µM |  | 92.9 µM |  | > 100 µM |  | 45.9 µM |  | 54.7 µM
7 | CN(C)C/C=C/C(=O)Nc1cc2c(Nc3ccc(F)c(Cl)c3)ncnc2cc1O[C@H]1CCOC1 | 2.4 µM and 1.62 µM | 13.3 µM and > 8.16 µM | 1.17 µM and 0.514 µM | 6.79 µM and 4.13 µM | 0.58 µM and 1.35 µM | 2.96 µM and > 10 µM | 2.39 µM and 3.28 µM | 7.49 µM and > 10 µM | < 0.01 µM and 0.003 µM | 11.3 µM and > 10 µM |  | 15.9 µM and > 10 µM | 0.915 µM and 1.27 µM | 12.3 µM and > 10 µM | 1.59 µM and 1.33 µM | 12.1 µM and > 9.47 µM | 0.0407 µM and 0.208 µM | 8.39 µM and > 10 µM | 1.46 µM and 0.576 µM | 14.8 µM and > 10 µM
8 | CN(C)C(=S)Sc1ccc([N+](=O)[O-])cc1[N+](=O)[O-] | 9.95 µM | 56.3 µM | 3.83 µM | 8.3 µM | 1.58 µM | 8.97 µM | 1.71 µM | 5.97 µM | 5.29 µM | 19.7 µM | 1.56 µM | 3.75 µM | 1.61 µM | 13.9 µM | 1.46 µM | 4.2 µM | 1.58 µM | 4.79 µM | 3.24 µM | 11.2 µM
9 | O=C(CNS(=O)(=O)Cc1ccccc1)NNc1ccccc1 |  | > 100 µM |  | > 100 µM |  | > 100 µM |  | > 25.6 µM |  | > 100 µM |  | > 100 µM |  | > 100 µM |  | > 100 µM |  | > 100 µM |  | > 100 µM
10 | Nc1ccn(C2OC(CO)C(O)C2O)c(=O)n1 (stereo not given) |  | > 500 µM | 13.6 µM | > 500 µM | 0.635 µM | > 500 µM | 1.93 µM |  |  | > 500 µM | 4.2 µM | > 500 µM |  | > 500 µM |  | > 500 µM | 0.107 µM |  | 2.05 µM | > 100 µM and 457 µM and > 500 µM
11 | C/C(=N\NC(=S)N1CCCCCC1)c1ccccn1 |  | 3.85 µM | 0.117 µM | 2.05 µM and 0.658 µM | < 0.0131 µM | 1.24 µM and 1.29 µM |  | 0.33 µM and 0.268 µM | 0.053 µM | 1.84 µM and 3.34 µM |  | 8.43 µM and 7.58 µM | < 0.0412 µM | 2.52 µM and 3.25 µM | 0.0497 µM | 1.99 µM and 4.43 µM | < 0.0393 µM | 5.45 µM and 10.4 µM | 0.0246 µM | 4.31 µM and 5.6 µM
12 | Cn1c(Nc2ccc(C(F)(F)F)cc2)nc2cc(Oc3ccnc(-c4ncc(C(F)(F)F)[nH]4)c3)ccc21 | 0.0555 µM | 9.41 µM | 0.0544 µM | 7.32 µM | 0.154 µM | 12.9 µM | 0.0519 µM | 3.89 µM | 2.33 µM | 19.1 µM | 2.3 µM | 17.4 µM | 1.21 µM | 14.4 µM | 0.0697 µM | 12.8 µM | 0.0609 µM | 15.4 µM | 0.0855 µM | 16.6 µM
13 | BrCc1cccc(C[P+](c2ccccc2)(c2ccccc2)c2ccccc2)c1 | 18.4 µM | > 100 µM | 54.7 µM | > 100 µM | 6.86 µM | > 100 µM | 7.97 µM | > 100 µM | 18.1 µM | > 100 µM | 3.99 µM | > 100 µM | 9.02 µM | > 100 µM | > 100 µM | > 100 µM | > 100 µM | > 100 µM | 18.4 µM | > 100 µM
